The text below walks through data of ChEMBL document CHEMBL5214947, “Photoprotective effect of 18β-glycyrrhetinic acid derivatives against ultra violet (UV)-B-Induced skin aging” (Bioorg Med Chem Lett, 2022).

Activity calls are given as the source filed them. The rule behind the calls is not given here.

Data set [1] deals with NHDF. In words: Cytotoxicity against human HDF cells assessed as reduction in cell viability at 10 uM incubated for 24 hrs by MTT assay. The class given is toxicity, cell-based. In general terms: Formazan colour is commonly taken as a measure of viable cells.
Data set [2] has as its system NHDF. Description: Cytoprotective activity against human HDF cells assessed as increase in cell viability at 10 uM incubated for 24 hrs by MTT assay. The data set is classed as functional.
Data set [3] concerns NHDF. In words: Cytoprotective activity against UV-B irradiation induced human HDF cells assessed as increase in cell viability at 10 uM incubated for 24 hrs by MTT assay. The data set is classed as functional.
Data set [4] concerns NHDF. Description: Cytoprotective activity against UV-B irradiation induced human HDF cells assessed as increase in cell viability at 25 uM incubated for 24 hrs by MTT assay. The data set is classed as functional.
Data set [5] concerns NHDF. In words: Antioxidant activity in UV-B irradiation induced human HDF cells assessed as decrease in ROS level at 10 to 25 uM incubated for 6 hrs by fluorescence microscopy. The class given is functional, cell-based. The settings on record: dose 10-25 µM, DDE = dose-dependent effect.
Data set [6] has as its system NHDF. Description: Antiapoptotic activity in UV-B irradiation induced human HDF cells assessed as upregulation of catalase expression level at 10 to 25 uM incubated for 24 hrs by western blot analysis. The data set is classed as functional, cell-based. The settings on record: dose 10-25 µM.
Data set [7] relates to NHDF. In words: Antiapoptotic activity in UV-B irradiation induced human HDF cells assessed as downregulation of MMP1 expression level at 10 to 25 uM incubated for 24 hrs by western blot analysis. The data set is classed as functional, cell-based. To be noted: dose 10-25 µM. (A western blot detects proteins with antibodies after separation by electrophoresis.)
Data set [8] concerns NHDF. Description: Antiapoptotic activity in UV-B irradiation induced human HDF cells assessed as upregulation of procollagen-1 expression level at 10 to 25 uM incubated for 24 hrs by western blot analysis. The data set is classed as functional, cell-based. The settings on record: dose 10-25 µM.
Data set [9] has as its system NHDF. Description: Antiapoptotic activity in UV-B irradiation induced human HDF cells assessed as decrease in mitochondrial membrane potential loss at 10 to 25 uM incubated for 24 hrs by JC-9 staining fluorescence microscopy. To be noted: dose 10-25 µM, DDE = dose-dependent effect. The class given is functional, cell-based.
Data set [10] relates to NHDF. Description: Antioxidant activity in UV-B irradiation induced human HDF cells assessed as decrease in ROS level at 25 uM incubated for 6 hrs by fluorescence microscopy. The data set is classed as functional, cell-based.
For data set [11], the system named is NHDF. In words: Antiapoptotic activity in UV-B irradiation induced human HDF cells assessed as upregulation of catalase expression level at 50 uM incubated for 24 hrs by western blot analysis. The class given is functional, cell-based.

For the molecule `COc1cc(Br)c(/C=C2\C[C@]3(C)[C@H]4C(=O)C=C5[C@@H]6C[C@@](C)(C(=O)O)CC[C@]6(C)CC[C@@]5(C)[C@]4(C)CC[C@H]3C(C)(C)[C@H]2O)cc1O`, the Activity in the data set with NHDF [1] is listed as 10.3%. As to `CC1(C)C(=O)/C(=C/c2ccc(Cl)cc2)C[C@]2(C)[C@H]3C(=O)C=C4[C@@H]5C[C@@](C)(C(=O)O)CC[C@]5(C)CC[C@@]4(C)[C@]3(C)CC[C@@H]12`, in the data set with NHDF [2], the Activity is recorded as 113.9%. On the same count and under the same terms, next, `CC1(C)[C@@H](O)/C(=C/c2cccc3ccccc23)C[C@]2(C)[C@H]3C(=O)C=C4[C@@H]5C[C@@](C)(C(=O)O)CC[C@]5(C)CC[C@@]4(C)[C@]3(C)CC[C@@H]12`: 110.1%. Regarding `CSc1ccc(/C=C2\C[C@]3(C)[C@H]4C(=O)C=C5[C@@H]6C[C@@](C)(C(=O)O)CC[C@]6(C)CC[C@@]5(C)[C@]4(C)CC[C@H]3C(C)(C)C2=O)cc1`, the Activity in the data set on NHDF [1] turned out to be 8.4%. The same measure, in the same setting: next, `CC1(C)C(=O)/C(=C/c2cccc3ccccc23)C[C@]2(C)[C@H]3C(=O)C=C4[C@@H]5C[C@@](C)(C(=O)O)CC[C@]5(C)CC[C@@]4(C)[C@]3(C)CC[C@@H]12`: 11.5%. Turning to `Cc1ccc(/C=C2\C[C@]3(C)[C@H]4C(=O)C=C5[C@@H]6C[C@@](C)(C(=O)O)CC[C@]6(C)CC[C@@]5(C)[C@]4(C)CC[C@H]3C(C)(C)[C@H]2O)s1`, the Activity in the data set on NHDF [2] was 101.1%. The same measure, in the same setting: next, `CCc1ccc(/C=C2\C[C@]3(C)[C@H]4C(=O)C=C5[C@@H]6C[C@@](C)(C(=O)O)CC[C@]6(C)CC[C@@]5(C)[C@]4(C)CC[C@H]3C(C)(C)[C@H]2O)cc1`: 114.5%. On to `COc1ccc(/C=C2\C[C@]3(C)[C@H]4C(=O)C=C5[C@@H]6C[C@@](C)(C(=O)O)CC[C@]6(C)CC[C@@]5(C)[C@]4(C)CC[C@H]3C(C)(C)C2=O)c(Br)c1O`, for which, in the data set with NHDF [1], the Activity is listed as 10%.

As to `CCc1ccc(/C=C2\C[C@]3(C)[C@H]4C(=O)C=C5[C@@H]6C[C@@](C)(C(=O)O)CC[C@]6(C)CC[C@@]5(C)[C@]4(C)CC[C@H]3C(C)(C)C2=O)cc1`, the Activity with NHDF [1] is 28.8%. In the case of `CCOc1cccc(/C=C2\C[C@]3(C)[C@H]4C(=O)C=C5[C@@H]6C[C@@](C)(C(=O)O)CC[C@]6(C)CC[C@@]5(C)[C@]4(C)CC[C@H]3C(C)(C)[C@H]2O)c1`, in the data set on NHDF [2], the Activity was 100.1%.

`COc1ccc(/C=C2\C[C@]3(C)[C@H]4C(=O)C=C5[C@@H]6C[C@@](C)(C(=O)O)CC[C@]6(C)CC[C@@]5(C)[C@]4(C)CC[C@H]3C(C)(C)[C@H]2O)c(F)c1`: the Activity is 106.7% with NHDF [2]; 8.3% in the data set on NHDF [3]; 19.5% in the data set on NHDF [4]; “Dde” in the data set with NHDF [5]; “Dde” with NHDF [9]. Further, the outcome with NHDF [6], in the data set with NHDF [7] and in the data set on NHDF [8] was Active. `CC1(C)[C@@H](O)/C(=C/c2ccncc2)C[C@]2(C)[C@H]3C(=O)C=C4[C@@H]5C[C@@](C)(C(=O)O)CC[C@]5(C)CC[C@@]4(C)[C@]3(C)CC[C@@H]12`: in the data set on NHDF [1], the Activity was 3.2%. Turning to `CSc1ccc(/C=C2\C[C@]3(C)[C@H]4C(=O)C=C5[C@@H]6C[C@@](C)(C(=O)O)CC[C@]6(C)CC[C@@]5(C)[C@]4(C)CC[C@H]3C(C)(C)[C@H]2O)cc1`, the results for the Activity with NHDF [2] and in the data set with NHDF [4] were 109.5% and 12%, respectively. With `CC1(C)[C@@H](O)/C(=C/c2ccc(Br)cc2)C[C@]2(C)[C@H]3C(=O)C=C4[C@@H]5C[C@@](C)(C(=O)O)CC[C@]5(C)CC[C@@]4(C)[C@]3(C)CC[C@@H]12`, the Activity in the data set on NHDF [2] was determined as 103.5%.

Turning to `Cc1ccc(/C=C2\C[C@]3(C)[C@H]4C(=O)C=C5[C@@H]6C[C@@](C)(C(=O)O)CC[C@]6(C)CC[C@@]5(C)[C@]4(C)CC[C@H]3C(C)(C)C2=O)cc1`, the Activity in the data set with NHDF [1] is given as 30.5%. Consider `CC1(C)[C@@H](O)/C(=C/c2cccc(F)c2)C[C@]2(C)[C@H]3C(=O)C=C4[C@@H]5C[C@@](C)(C(=O)O)CC[C@]5(C)CC[C@@]4(C)[C@]3(C)CC[C@@H]12`, for which, in the data set on NHDF [1], the Activity was found to be 4.4%.

As for `CC1(C)C(=O)CC[C@]2(C)[C@H]3C(=O)C=C4[C@@H]5C[C@@](C)(C(=O)O)CC[C@]5(C)CC[C@@]4(C)[C@]3(C)CC[C@@H]12`, the Activity in the data set on NHDF [1] was 5.2%.

For `CC1(C)[C@@H](O)CC[C@]2(C)[C@H]3C(=O)C=C4[C@@H]5C[C@@](C)(C(=O)O)CC[C@]5(C)CC[C@@]4(C)[C@]3(C)CC[C@@H]12` [ENOXOLONE], the figures for the Activity in the data set on NHDF [2], in the data set with NHDF [3] and with NHDF [4] were 106.4%, 1% and 17%, respectively. For `COc1ccccc1/C=C1\C[C@]2(C)[C@H]3C(=O)C=C4[C@@H]5C[C@@](C)(C(=O)O)CC[C@]5(C)CC[C@@]4(C)[C@]3(C)CC[C@H]2C(C)(C)[C@H]1O`, the Activity is reported as 114.5% in the data set with NHDF [2] and 6% in the data set on NHDF [3]. Turning to `COc1ccccc1/C=C1\C[C@]2(C)[C@H]3C(=O)C=C4[C@@H]5C[C@@](C)(C(=O)O)CC[C@]5(C)CC[C@@]4(C)[C@]3(C)CC[C@H]2C(C)(C)C1=O`, the Activity in the data set with NHDF [1] was 5.9%. Take `CC1(C)C(=O)/C(=C/c2cccc(F)c2)C[C@]2(C)[C@H]3C(=O)C=C4[C@@H]5C[C@@](C)(C(=O)O)CC[C@]5(C)CC[C@@]4(C)[C@]3(C)CC[C@@H]12`: the Activity in the data set on NHDF [1] stood at 6.5%. The same measure, in the same setting: next, `CC1(C)[C@@H](O)/C(=C/c2ccccc2)C[C@]2(C)[C@H]3C(=O)C=C4[C@@H]5C[C@@](C)(C(=O)O)CC[C@]5(C)CC[C@@]4(C)[C@]3(C)CC[C@@H]12`: 7.4%; `Cc1ccc(/C=C2\C[C@]3(C)[C@H]4C(=O)C=C5[C@@H]6C[C@@](C)(C(=O)O)CC[C@]6(C)CC[C@@]5(C)[C@]4(C)CC[C@H]3C(C)(C)C2=O)s1`: 12.2%. As for `COc1cc(Br)c(/C=C2\C[C@]3(C)[C@H]4C(=O)C=C5[C@@H]6C[C@@](C)(C(=O)O)CC[C@]6(C)CC[C@@]5(C)[C@]4(C)CC[C@H]3C(C)(C)C2=O)cc1O`, the Activity was determined as 104.7% in the data set on NHDF [2] and 3% in the data set with NHDF [3]. `COc1ccc(/C=C2\C[C@]3(C)[C@H]4C(=O)C=C5[C@@H]6C[C@@](C)(C(=O)O)CC[C@]6(C)CC[C@@]5(C)[C@]4(C)CC[C@H]3C(C)(C)C2=O)cc1`: in the data set on NHDF [1], the Activity is given as 11.5%. Regarding `COc1ccc(/C=C2\C[C@]3(C)[C@H]4C(=O)C=C5[C@@H]6C[C@@](C)(C(=O)O)CC[C@]6(C)CC[C@@]5(C)[C@]4(C)CC[C@H]3C(C)(C)[C@H]2O)cc1`, in the data set on NHDF [2], the Activity is recorded as 112.5%. Regarding `O=C1O[C@H]([C@@H](O)CO)C(O)=C1O`, in the data set with NHDF [10], the result was Active. In the case of `CC1(C)[C@@H](O[C@H]2O[C@H](C(=O)O)[C@@H](O)[C@H](O)[C@H]2O[C@@H]2O[C@H](C(=O)O)[C@@H](O)[C@H](O)[C@H]2O)CC[C@]2(C)[C@H]3C(=O)C=C4[C@@H]5C[C@@](C)(C(=O)O)CC[C@]5(C)CC[C@@]4(C)[C@]3(C)CC[C@@H]12`, in the data set on NHDF [11], the outcome was Active. As for `COc1ccc(/C=C2\C[C@]3(C)[C@H]4C(=O)C=C5[C@@H]6C[C@@](C)(C(=O)O)CC[C@]6(C)CC[C@@]5(C)[C@]4(C)CC[C@H]3C(C)(C)[C@H]2O)c(Br)c1O`, the Activity with NHDF [1] worked out at 20.2%. Still for that read-out and setting: next, `CCOc1cccc(/C=C2\C[C@]3(C)[C@H]4C(=O)C=C5[C@@H]6C[C@@](C)(C(=O)O)CC[C@]6(C)CC[C@@]5(C)[C@]4(C)CC[C@H]3C(C)(C)C2=O)c1`: 35.7%; `CC1(C)C(=O)/C(=C/c2ccccc2)C[C@]2(C)[C@H]3C(=O)C=C4[C@@H]5C[C@@](C)(C(=O)O)CC[C@]5(C)CC[C@@]4(C)[C@]3(C)CC[C@@H]12`: 11.5%; `CC1(C)C(=O)/C(=C/c2ccncc2)C[C@]2(C)[C@H]3C(=O)C=C4[C@@H]5C[C@@](C)(C(=O)O)CC[C@]5(C)CC[C@@]4(C)[C@]3(C)CC[C@@H]12`: 8.3%. Consider `CC1(C)C(=O)/C(=C/c2ccc(Br)cc2)C[C@]2(C)[C@H]3C(=O)C=C4[C@@H]5C[C@@](C)(C(=O)O)CC[C@]5(C)CC[C@@]4(C)[C@]3(C)CC[C@@H]12`, for which the Activity in the data set with NHDF [1] was found to be 17.5%. The same measure, in the same setting: next, `COc1ccc(/C=C2\C[C@]3(C)[C@H]4C(=O)C=C5[C@@H]6C[C@@](C)(C(=O)O)CC[C@]6(C)CC[C@@]5(C)[C@]4(C)CC[C@H]3C(C)(C)C2=O)c(F)c1`: 19.1%.
